The assay concerns S. aureus MRSA strain NRS384 in humanized MSR1 mice. Kind of assay: S. aureus IV disseminated infection mouse model, kidney burden. The format is in vivo. Here is the method: To test the efficacy of an anti-MSR1 Ab-antibiotic ncADC of the invention in vivo, an intravenous disseminated infection model was utilized. S. aureus MSRA strain NRS384 was grown overnight in trypic soy broth (TSB) and sub-cultured to mid-logarithmic phase. Bacteria were then washed twice with PBS and resuspended in PBS at a concentration of 1.2×10^8 cfu/mL. […] From one to three days post infection, mice were treated with 110 mg/kg vancomycin subcutaneously twice daily where indicated. […] Mice were monitored for weight loss and body conditioning score throughout the infection. At four days post infection, mice were euthanized and the S. aureus kidney burden was quantified by tissue homogenization followed by enumeration of colony forming units through serial dilution in PBS and plating onto trypicase soy agar plates.

Setting [1] is: vancomycin treatment alone, limit of detection 250 cfu.

The values below come from patent US12497460B2, “Anti-MSR1 antibodies and methods of use thereof” (REGENERON PHARMACEUTICALS, INC., priority 2018, dated 2025).

On to `CN[C@H](CC(C)C)C(=O)N[C@H]1C(=O)N[C@@H](CC(N)=O)C(=O)N[C@H]2C(=O)N[C@H]3C(=O)N[C@H](C(=O)N[C@H](C(=O)O)c4cc(O)cc(O)c4-c4cc3ccc4O)[C@H](O)c3ccc(c(Cl)c3)Oc3cc2cc(c3O[C@@H]2O[C@H](CO)[C@@H](O)[C@H](O)[C@H]2O[C@H]2C[C@](C)(N)[C@H](O)[C@H](C)O2)Oc2ccc(cc2Cl)[C@H]1O` [vancomycin], for which, for the setting “110 mg/kg s.c. twice daily, days 1 to 3 post infection, day 4”, the “reduction of S. aureus kidney burden” value is given as “approximately 2 logs”. The “mice with S. aureus levels below the LOD (in words)” value (vancomycin alone, 110 mg/kg s.c. twice daily) is given as “none of the mice had levels of S. aureus reduced below the limit of detection”. Also, under setting [1], the “# of mice with S. aureus below the limit of detection” value is on record as 0/6 and the Average cfu/kidney pair is reported as 2.07E+06 cfu/kidney pair.
